Paper PMC9653995, “New Positive TRPC6 Modulator Penetrates Blood–Brain Barrier, Eliminates Synaptic Deficiency and Restores Memory Deficit in 5xFAD Mice” (International Journal of Molecular Sciences, 2022)

How the values were obtained:
[1] = In vitro stability in pooled mouse blood plasma; type: in vitro ADME; conditions: 1 µM, 37 °C
Description: The stability of C20 was assessed during incubation with pooled mouse plasma samples for 4 h at 37 °C. To confirm the activity of blood plasma enzymes in the control substance, propantheline (Figure 4A) was used.
The compound C20, at a final concentration of 1 μM, was incubated in mouse plasma at 37 °C with moderate shaking at 300 rpm in a shaker-incubator. After 0, 15, 30, 60 and 240 min, the samples were mixed, aliquots were obtained, and the samples were analyzed by HPLC-MS/MS. Propantheline was used as a control compound. Incubation of compounds with plasma samples was carried out in duplicate. Overall, 100% was obtained as the amount of a substance determined using a mass spectrometer in blood plasma in a 0 min incubation time period.
A total of 3 µL of 100-fold C20 or propantheline substance (0.1 mM) was added to 297 µL of blood plasma preheated to 37 °C to a final concentration of 1 µM.
Aliquots of 30 μL for the time point T = 0 were transferred into microtubes with a capacity of 1.1 mL pre-filled with 180 μL of chilled MeCN with an internal standard of Tolbutamide (IS) at a concentration of 50 ng/mL. Mixed and kept at +4 °C for 15 min. […]
The values of the areas of chromatographic peaks of substances in the studied samples normalized to the area of IS were used for calculations. The 100% of the tested substance from the initial amount was determined at T = 0 min of incubation. […]

5xFAD mice = experiment: Contextual and cued fear conditioning test; type: in vivo, mouse; conditions: 10 mg/kg i.p. daily for 14 days
Description: To analyze the effect of C20 on the cognitive status of diseased mice, a contextual and cued fear conditioning test was performed in the 5xFAD mice. Two WT cohorts and two 5xFAD cohorts of eight mice each were intraperitoneally injected (every day for 14 days) with either C20 (10 mg/kg) or an equal amount of vehicle.
Six-month-old 5xFAD and WT mice were intraperitoneally injected with C20 (10 mg/kg b.w. dissolved in ethanol (13.5%) and diluted in 0.9% saline (86.5%)) or an equal volume of ethanol diluted in 0.9% saline (vehicle) once daily for 14 days. To analyze the effect of C20 on cognitive behavior, mice were subjected to hippocampus-dependent contextual fear conditioning and hippocampus independent tone fear conditioning (n = 8 mice in each group).
According to a 3-day delay fear conditioning protocol, the conditioned stimulus is presented and overlapped by the presentation of the unconditioned stimulus. The experiments were performed using a standard conditioning chamber (25 cm × 20 cm × 30 cm) with a stainless steel floor connected to an electric shock generator. The chamber was housed in a soundproof isolation cubicle. Measurements were accomplished through two cameras (Web camera FI#2.0 8mm и Webcam Logitech C200, Apples, Switzerland), connected to a computer with video freeze software (AUTO_URAI_4 developer Dr. V.V. Sizov, Institute of Experimental Medicine, Saint Petersburg, Russia, I.P. Pavlov Department of Physiology, sizoff@list.ru).
To exclude possible freezing due to the novel environment, we allowed the mice to habituate to the chamber. On day 1 (habituation), we brought mice into the habituation room and placed them into a training chamber individually for 5 min without any cue.
On day 2 (training), we placed each mouse in the conditioning chamber for 2 min without any shock or tone. Then, mice received two repetitions of a tone (500 Hz, 55 dB) that simultaneously ended with a 2 s foot shock (0.3 mA, US) with 60 s inter-trial intervals. Mice were allowed to recover after the foot-shock for an additional 60 s before being removed to their home cage.
On day 3 (testing), mice were placed back in the familiar fear conditioning chamber, but in the absence of tones and foot shocks. The freezing behavior was measured for 180 s to test contextual memory retrieval. For the tone fear retrieval trial one hour after the contextual test, mice were placed in an altered conditioning chamber with black and white striped walls, a covered floor, and a vanilla extract scent. After 180 s of baseline in an altered conditioning recording, a tone similar to the one used during the fear conditioning training was presented for 180 s. The freezing behavior before and during the tone was measured.

## COc1cc2c(cc1OC)C(c1cc3ccccc3oc1=O)=NC(C)(C)C2 [C20, 3-(3-,4-Dihydro-6,7-dimethoxy-3,3-dimethyl-1-isoquinolinyl)-2H-1-benzopyran-2-one]
[1]; after 4 h incubation
  initial amount remaining in mouse blood plasma: about 62%
[1]; during the first hour of incubation
  concentration remaining in mouse blood plasma: above 85%
5xFAD mice; 6-month-old 5xFAD mice, 5xFAD + vehicle 33.88 ± 15.09%
  freezing time to context: 67.00 ± 17.78%
5xFAD mice; 6-month-old 5xFAD mice, 5xFAD + vehicle 37.75 ± 8.25%
  freezing time to tone: 63.50 ± 13.38%
5xFAD mice; WT mice, WT + vehicle 58.25 ± 19.06%
  freezing time to context: 59.63 ± 17.53%
5xFAD mice; WT mice, WT + vehicle 69.25 ± 18.19%
  freezing time to tone: 67.75 ± 7.56%
